Test results taken from paper PMC8900464 (Journal of medicinal chemistry, 2022).

How the values were obtained:
total AKT (T-AKT) = test: Immunoblotting of total AKT in BT474 cells; assay type: cell-based; settings: 24 h, western blot; for AKT (T-AKT) degradation: BT474 cells, 1, 5 and 10 μM
[1] = tested on: P-AKT (S473), P-PRAS40 (T246), P-S6 (S240/244); test: Immunoblotting of P-AKT and downstream signaling in BT474 cells; assay type: cell-based; settings: 24 h
[2] = BT474 cells, 1, 5 and 10 μM, P-PRAS40 and P-S6, western blot

Compound: NC1(C(=O)N[C@@H](CCN2CCN(C(=O)CCOCCNc3cccc4c3C(=O)N(C3CCC(=O)NC3=O)C4=O)CC2)c2ccc(Cl)cc2)CCN(c2ncnc3[nH]ccc23)CC1 (stereo partly drawn) [Compound 31, 4-Amino-N-((1S)-1-(4-chlorophenyl)-3-(4-(3-(2-((2-(2,6-dioxopiperidin-3-yl)-1,3-dioxoisoindolin-4-yl)amino)ethoxy)propanoyl)-piperazin-1-yl)propyl)-1-(7H-pyrrolo[2,3-d]pyrimidin-4-yl)-piperidine-4-carboxamide]
- AKT degradation (total AKT (T-AKT); BT474 cells, 10 μM): only moderate AKT degradation

Compound: NC1(C(=O)N[C@@H](CCN2CCN(C(=O)CCOCCOCCOCCOCCOCCNc3cccc4c3CN(C3CCC(=O)NC3=O)C4=O)CC2)c2ccc(Cl)cc2)CCN(c2ncnc3[nH]ccc23)CC1 (stereo partly drawn) [Compound 39, 4-Amino-N-((1S)-1-(4-chlorophenyl)-3-(4-(1-((2-(2,6-dioxopiperidin-3-yl)-1-oxoisoindolin-4-yl)amino)-3,6,9,12,15-pentaoxaoctadecan-18-oyl)piperazin-1-yl)propyl)-1-(7H-pyrrolo[2,3-d]pyrimidin-4-yl)piperidine-4-carboxamide]
- AKT (T-AKT) degradation (total AKT (T-AKT)): significantly decreased effectiveness in AKT degradation

Compound: Cc1ncsc1-c1ccc(CNC(=O)[C@@H]2C[C@@H](O)CN2C(=O)[C@@H](NC(=O)CCCC(=O)N2CCN(CC[C@H](NC(=O)C3(N)CCN(c4ncnc5[nH]ccc45)CC3)c3ccc(Cl)cc3)CC2)C(C)(C)C)cc1 [Compound 13, 4-Amino-N-((S)-1-(4-chlorophenyl)-3-(4-(5-(((S)-1-((2S,4R)-4-hydroxy-2-((4-(4-methylthiazol-5-yl)benzyl)carbamoyl)pyrrolidin-1-yl)-3,3-dimethyl-1-oxobutan-2-yl)amino)-5-oxopentanoyl)-piperazin-1-yl)propyl)-1-(7H-pyrrolo[2,3-d]pyrimidin-4-yl)-piperidine-4-carboxamide]
- AKT (T-AKT) degradation (total AKT (T-AKT)): inactive at reducing the T-AKT protein level

Compound: Cc1ncsc1-c1ccc(CNC(=O)[C@@H]2C[C@@H](O)CN2C(=O)[C@@H](NC(=O)CCCCCC(=O)N2CCN(CC[C@H](NC(=O)C3(N)CCN(c4ncnc5[nH]ccc45)CC3)c3ccc(Cl)cc3)CC2)C(C)(C)C)cc1 [Compound 15, 4-Amino-N-((S)-1-(4-chlorophenyl)-3-(4-(7-(((S)-1-((2S,4R)-4-hydroxy-2-((4-(4-methylthiazol-5-yl)benzyl)carbamoyl)pyrrolidin-1-yl)-3,3-dimethyl-1-oxobutan-2-yl)amino)-7-oxoheptanoyl)-piperazin-1-yl)propyl)-1-(7H-pyrrolo[2,3-d]pyrimidin-4-yl)-piperidine-4-carboxamide]
- AKT degradation (total AKT (T-AKT); BT474 cells, 5 μM): improved AKT degradation
- downstream signaling inhibition ([1]; BT474 cells, 5 μM, western blot): significant downstream signaling inhibition

Compound: NC1(C(=O)N[C@@H](CCN2CCN(C(=O)CCCCCNc3cccc4c3C(=O)N(C3CCC(=O)NC3=O)C4=O)CC2)c2ccc(Cl)cc2)CCN(c2ncnc3[nH]ccc23)CC1 (stereo partly drawn) [Compound 28, 4-Amino-N-((1S)-1-(4-chlorophenyl)-3-(4-(6-((2-(2,6-dioxopiperidin-3-yl)-1,3-dioxoisoindolin-4-yl)amino)hexanoyl)piperazin-1-yl)-propyl)-1-(7H-pyrrolo[2,3-d]pyrimidin-4-yl)piperidine-4-carboxamide]
- AKT (T-AKT) degradation (total AKT (T-AKT)): moderate effectiveness
- downstream signaling inhibition [1, 2]: moderate effectiveness

Compound: NC1(C(=O)N[C@@H](CCN2CCN(C(=O)CCCNc3cccc4c3C(=O)N(C3CCC(=O)NC3=O)C4=O)CC2)c2ccc(Cl)cc2)CCN(c2ncnc3[nH]ccc23)CC1 (stereo partly drawn) [Compound 26, 4-Amino-N-((1S)-1-(4-chlorophenyl)-3-(4-(4-((2-(2,6-dioxopiperidin-3-yl)-1,3-dioxoisoindolin-4-yl)amino)butanoyl)piperazin-1-yl)-propyl)-1-(7H-pyrrolo[2,3-d]pyrimidin-4-yl)piperidine-4-carboxamide]
- AKT (T-AKT) degradation (total AKT (T-AKT)): moderate effectiveness
- downstream signaling inhibition [1, 2]: moderate effectiveness

Compound: NC1(C(=O)N[C@@H](CCN2CCN(C(=O)CCCCNc3cccc4c3C(=O)N(C3CCC(=O)NC3=O)C4=O)CC2)c2ccc(Cl)cc2)CCN(c2ncnc3[nH]ccc23)CC1 (stereo partly drawn) [Compound 27, 4-Amino-N-((1S)-1-(4-chlorophenyl)-3-(4-(5-((2-(2,6-dioxopiperidin-3-yl)-1,3-dioxoisoindolin-4-yl)amino)pentanoyl)piperazin-1-yl)propyl)-1-(7H-pyrrolo[2,3-d]pyrimidin-4-yl)piperidine-4-carboxamide]
- AKT (T-AKT) degradation (total AKT (T-AKT)): moderate effectiveness
- downstream signaling inhibition [1, 2]: moderate effectiveness

Compound: NC1(C(=O)N[C@@H](CCN2CCN(C(=O)CCNc3cccc4c3C(=O)N(C3CCC(=O)NC3=O)C4=O)CC2)c2ccc(Cl)cc2)CCN(c2ncnc3[nH]ccc23)CC1 (stereo partly drawn) [Compound 25, 4-Amino-N-((1S)-1-(4-chlorophenyl)-3-(4-(3-((2-(2,6-dioxopiperidin-3-yl)-1,3-dioxoisoindolin-4-yl)amino)propanoyl)piperazin-1-yl)propyl)-1-(7H-pyrrolo[2,3-d]pyrimidin-4-yl)piperidine-4-carboxamide]
- AKT (T-AKT) degradation (total AKT (T-AKT)): negligible AKT degradation

Compound: Cc1ncsc1-c1ccc(CNC(=O)[C@@H]2C[C@@H](O)CN2C(=O)[C@@H](NC(=O)CCOCCC(=O)N2CCN(CC[C@H](NC(=O)C3(N)CCN(c4ncnc5[nH]ccc45)CC3)c3ccc(Cl)cc3)CC2)C(C)(C)C)cc1 [Compound 4, 4-Amino-N-((S)-1-(4-chlorophenyl)-3-(4-(3-(3-(((S)-1-((2S,4R)-4-hydroxy-2-((4-(4-methylthiazol-5-yl)benzyl)carbamoyl)pyrrolidin-1-yl)-3,3-dimethyl-1-oxobutan-2-yl)amino)-3-oxopropoxy)-propanoyl)piperazin-1-yl)propyl)-1-(7H-pyrrolo[2,3-d]pyrimidin-4-yl)piperidine-4-carboxamide]
- AKT (T-AKT) degradation (total AKT (T-AKT)): decreased the AKT degradation effectiveness

Compound: Cc1ncsc1-c1ccc(CNC(=O)[C@@H]2C[C@@H](O)CN2C(=O)[C@@H](NC(=O)CCC(=O)N2CCN(CC[C@H](NC(=O)C3(N)CCN(c4ncnc5[nH]ccc45)CC3)c3ccc(Cl)cc3)CC2)C(C)(C)C)cc1 [Compound 12, 4-Amino-N-((S)-1-(4-chlorophenyl)-3-(4-(4-(((S)-1-((2S,4R)-4-hydroxy-2-((4-(4-methylthiazol-5-yl)benzyl)carbamoyl)pyrrolidin-1-yl)-3,3-dimethyl-1-oxobutan-2-yl)amino)-4-oxobutanoyl)-piperazin-1-yl)propyl)-1-(7H-pyrrolo[2,3-d]pyrimidin-4-yl)-piperidine-4-carboxamide]
- AKT (T-AKT) degradation (total AKT (T-AKT)): inactive at reducing the T-AKT protein level

Compound: Cc1ncsc1-c1ccc(CNC(=O)[C@@H]2C[C@@H](O)CN2C(=O)[C@@H](N)C(C)(C)C)cc1 [VHL-1, (2S,4R)-1-[(S)-2-amino-3,3-dimethylbutanoyl]-4-hydroxy-N-[4-(4-methylthiazol-5-yl)benzyl]pyrrolidine-2-carboxamide, reference compound]
- T-AKT protein level (total AKT (T-AKT); BT474 cells, 1 μM): no effect
- downstream signaling (PRAS40 and S6 phosphorylation) ([1]; BT474 cells, 1 μM, western blot): no effect

Compound: NC1(C(=O)N[C@@H](CCN2CCN(C(=O)CNc3cccc4c3C(=O)N(C3CCC(=O)NC3=O)C4=O)CC2)c2ccc(Cl)cc2)CCN(c2ncnc3[nH]ccc23)CC1 (stereo partly drawn) [Compound 24, 4-Amino-N-((1S)-1-(4-chlorophenyl)-3-(4-((2-(2,6-dioxopiperidin-3-yl)-1,3-dioxoisoindolin-4-yl)glycyl)piperazin-1-yl)propyl)-1-(7H-pyrrolo[2,3-d]pyrimidin-4-yl)piperidine-4-carboxamide]
- AKT (T-AKT) degradation (total AKT (T-AKT)): negligible AKT degradation

Compound: NC1(C(=O)N[C@@H](CCN2CCN(C(=O)CCCCCCCNc3cccc4c3C(=O)N(C3CCC(=O)NC3=O)C4=O)CC2)c2ccc(Cl)cc2)CCN(c2ncnc3[nH]ccc23)CC1 (stereo partly drawn) [Compound 30, 4-Amino-N-((1S)-1-(4-chlorophenyl)-3-(4-(8-((2-(2,6-dioxopiperidin-3-yl)-1,3-dioxoisoindolin-4-yl)amino)octanoyl)piperazin-1-yl)-propyl)-1-(7H-pyrrolo[2,3-d]pyrimidin-4-yl)piperidine-4-carboxamide]
- AKT (T-AKT) degradation (total AKT (T-AKT)): negligible AKT degradation

Compound: Cc1ncsc1-c1ccc(CNC(=O)[C@@H]2C[C@@H](O)CN2C(=O)[C@@H](NC(=O)CCCCCCCCCC(=O)N2CCN(CC[C@H](NC(=O)C3(N)CCN(c4ncnc5[nH]ccc45)CC3)c3ccc(Cl)cc3)CC2)C(C)(C)C)cc1 [Compound 19, 4-Amino-N-((S)-1-(4-chlorophenyl)-3-(4-(11-(((S)-1-((2S,4R)-4-hydroxy-2-((4-(4-methylthiazol-5-yl)benzyl)carbamoyl)pyrrolidin-1-yl)-3,3-dimethyl-1-oxobutan-2-yl)amino)-11-oxoundecanoyl)-piperazin-1-yl)propyl)-1-(7H-pyrrolo[2,3-d]pyrimidin-4-yl)-piperidine-4-carboxamide]
- AKT (T-AKT) degradation (total AKT (T-AKT)): most profound AKT degradation
- downstream signaling inhibition [1, 2]: most profound AKT degradation and downstream signaling inhibition

Compound: NC1(C(=O)N[C@@H](CCN2CCN(C(=O)CCCCCCNc3cccc4c3C(=O)N(C3CCC(=O)NC3=O)C4=O)CC2)c2ccc(Cl)cc2)CCN(c2ncnc3[nH]ccc23)CC1 (stereo partly drawn) [Compound 29, 4-Amino-N-((1S)-1-(4-chlorophenyl)-3-(4-(7-((2-(2,6-dioxopiperidin-3-yl)-1,3-dioxoisoindolin-4-yl)amino)heptanoyl)piperazin-1-yl)propyl)-1-(7H-pyrrolo[2,3-d]pyrimidin-4-yl)piperidine-4-carboxamide]
- AKT (T-AKT) degradation (total AKT (T-AKT)): negligible AKT degradation
